Consider 10 compounds from ChEMBL document CHEMBL3603787, “Antiproliferative and tumor inhibitory studies of 2,3 disubstituted 4-thiazolidinone derivatives” (Bioorg Med Chem Lett, 2015).

SMILES strings stand for the structures. The source made the active and inactive calls. The rule behind the calls is not given here. Bounds are passed on as bounds.

Data set [1] deals with REH. The data set can be described thus: Antiproliferative activity against human REH cells after 48 hrs by MTT assay. It counts as functional, cell-based. Background: Tetrazolium assays rely on reduction of a dye to a coloured formazan, in cell work by metabolically active cells.
Data set [2] can be described thus: Antiproliferative activity against human NALM6 cells after 48 hrs by MTT assay. It counts as functional, cell-based. The following applies: NALM-6, 48 h.
The test system of data set [3] is Mus musculus. Put plainly: Toxicity in mouse EAC allografted mouse assessed as effect on organs function at 25 mg/kg. The following applies: in vivo. The format is organism-based.
Data set [4] relates to Mus musculus. Put plainly: Toxicity in mouse EAC allografted mouse assessed as effect on morphology and cellular construction of organs at 25 mg/kg. The format is organism-based. To be noted: in vivo.
Data set [5] in a line: Antiproliferative activity against human HEK293T cells after 48 hrs by MTT assay. It counts as cell-based. To be noted: HEK-293T.
Data set [6] concerns Ehrlich. Put plainly: Antitumor activity against mouse EAC cells allografted in mouse assessed as reduction of tumor volume at 25 mg/kg measured up to 14 days. The format is functional, organism-based.
Data set [7] has as its system REH. The data set can be described thus: Cell cycle arrest in human REH cells assessed as accumulation at sub-G1 phase after 48 hrs using propidium iodide staining. The format is functional, cell-based.
Data set [8] deals with REH. Put plainly: Induction of apoptosis in human REH cells assessed as decrease in mitochondrial membrane potential using green fluorescence of JC-1 dye after 48 hrs. The format is functional, cell-based.
Data set [9] concerns Ehrlich. The data set can be described thus: Antitumor activity against mouse EAC cells allografted in mouse assessed as necrosis and innumerable number of apoptotic cells at 25 mg/kg measured up to 14 days. It counts as functional, organism-based.

Take `Cc1ccccc1N1C(=O)CSC1c1ccc(C(F)(F)F)cc1` (configuration not stated): the figures for the half-maximal inhibitory concentration (IC50) in [1] and in data set [2] were 29.6 µM and 42.6 µM, respectively.
The corresponding values for `CC(C)(C)OC(=O)N1CCC(C2SCC(=O)N2c2ccc(N3CCN(C(=O)OC(C)(C)C)CC3)cn2)CC1` (configuration not stated) are more than 100 µM and 82.9 µM.
As for `COc1ccc(N2C(=O)CSC2c2ccccc2[N+](=O)[O-])cc1` (configuration not stated), the IC50 in data set [1] was more than 100 µM; in data set [2], 93.4 µM.
On the same counts, the results for `COc1cccc(N2C(=O)CSC2c2ccc(F)cc2)c1` (configuration not stated) are more than 100 µM and 49.8 µM.
Regarding `CC1(c2ccccc2)SCC(=O)N1c1cc(Cl)cc(Cl)c1` (configuration not stated), the IC50 in data set [1] and in data set [2] was more than 100 µM throughout.
On to `O=C1CSC2(CCCCC2)N1c1ccc(OC(F)F)cc1`, for which the concentration for half-maximal inhibition (IC50) was 41.4 µM in [1] and more than 100 µM in data set [2].
On the same counts, the results for `O=C1CSC2(CCCC2)N1c1ncccn1` are more than 100 µM and more than 100 µM.
As for `COc1ccc(N2C(=O)CSC2c2ccc(O)cc2)cc1OC` (configuration not stated), the values for the IC50 in data set [1] and in data set [2] were 69.4 µM and more than 100 µM, respectively.
Take `CN(C)c1ccc(C2SCC(=O)N2c2ccc(Br)cc2)cc1` (configuration not stated): the 50% inhibitory concentration (IC50) in data set [1] is 11.9 µM; in data set [2] it was 13.2 µM; in data set [5], more than 80 µM. The Activity result is “Non-toxic” in [3], “Non-toxic” in [4], “Dose-dependent effect” in [7] and “Dose-dependent effect” in data set [8]. In addition, the outcome in [6] and in data set [9] was Active.
As to `COc1ccc(N2C(=O)CSC2c2cccnc2)cc1OC` (configuration not stated), the IC50 in [1] and in data set [2] was more than 100 µM throughout.

A word on the IC50: it is the concentration needed to halve the response being measured. The low end stands for greater potency, the high end for weaker potency.
